Experimental data as given in ChEMBL document CHEMBL4732142, “Discovery of the First Druggable GPR52 Antagonist to Treat Huntington's Disease” (J Med Chem, 2021).
Calls of active or inactive are those of the source. No cut-off for these calls is given here.

What was measured:
Mus musculus [1] = species: Mus musculus; assay: Neuroprotective activity in primary striatal neurons from HdhQ140 mouse assessed as rescue of mHTT-induced neuronal survival loss; assay type: functional, organism-based; conditions: Neuron
Mus musculus [2] = assay: Neuroprotective activity in HdhQ140 mouse assessed as decrease in staining intensity of microglia at 0.5 mM, icv by Iba1staining based analysis; assay type: functional, organism-based
[3] = Drug uptake in mouse brain at 5 mg/kg, iv; assay type: ADME, organism-based; conditions: in vivo, read-out: Drug uptake
[4] = Neuroprotective activity in HdhQ140 mouse model assessed as alleviation of motor deficiency at 5 mg/kg, iv; assay type: organism-based; conditions: in vivo
Mus musculus [5] = assay: Neuroprotective activity in primary striatal neurons from HdhQ140 mouse assessed as rescue of mHTT-induced neuronal survival loss at 5 mg/kg, iv; assay type: functional, organism-based
Mus musculus [6] = assay: Neuroprotective activity in HdhQ140 mouse assessed as decrease in staining intensity of microglia at 5 mg/kg, iv by Iba1staining based analysis; assay type: functional, organism-based
[7] = molecular target: G-protein coupled receptor 52 (Mus musculus, UniProt P0C5J4); assay: In-vivo antagonist activity at GPR52 in HdhQ140 mouse model with GPR52 knockdown assessed as decrease in mHTT levels; assay type: functional
Chain of G-protein coupled receptor 52 (P0C5J4 whole entry): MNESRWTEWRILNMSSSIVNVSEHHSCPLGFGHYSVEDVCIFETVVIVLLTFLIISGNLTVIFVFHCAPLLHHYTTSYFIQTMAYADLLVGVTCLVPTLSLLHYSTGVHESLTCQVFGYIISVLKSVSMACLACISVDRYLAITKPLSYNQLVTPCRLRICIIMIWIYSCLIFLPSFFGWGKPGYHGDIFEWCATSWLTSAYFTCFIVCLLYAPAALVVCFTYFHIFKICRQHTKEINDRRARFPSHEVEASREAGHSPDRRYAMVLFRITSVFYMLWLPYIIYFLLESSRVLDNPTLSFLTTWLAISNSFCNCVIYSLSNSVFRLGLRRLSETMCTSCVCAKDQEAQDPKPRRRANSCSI

Row | concentration [3] [nM] | IC50 [7] [µM] | Structure (SMILES) | Activity (Mus musculus [1]) | Activity (Mus musculus [2]) | Activity [4] | Activity (Mus musculus [5]) | Activity (Mus musculus [6])
1 | 20 | – | O=C(/C=C/CCc1ccccc1)c1cccs1 | Active | Active | Toxic | Active | Active
2 | – | 6 | O=C(/C=C/CCc1ccccc1)CCc1ccccc1 | – | – | – | – | –
